From patent publication US20010014694A1, “Substituted phenyl compounds and derivatives thereof that modulate the activity of endothelin” (priority 1996, published 2001)

The compounds below were run on ETA and ETB receptors (assay: Endothelin binding inhibition assays of the Examples, result stated for ETA and/or ETB). Settings: relative to the other compounds listed; in vitro binding assays.
Design: species or system human
Source text: Compounds that are potential endothelin antagonists are identified by testing their ability to compete with ^125I-labeled ET-1 for binding to human ETA receptors or ETB receptors present on isolated cell membranes. The effectiveness of the test compound as an antagonist or agonist of the biological tissue response of endothelin can also be assessed by measuring the effect on endothelin induced contraction of isolated rat thoracic aortic rings. The ability of the compounds to act as antagonists or agonists for ETB receptors can be assess by testing the ability of the compounds are to inhibit endothelin-1 induced prostacyclin release from cultured bovine aortic endothelial cells.
A. Endothelin Binding Inhibition—Binding Test #1: Inhibition of Binding to ETA Receptors
TE 671 cells (ATCC Accession No. HTB 139) express ETA receptors. These cells were grown to confluence in T-175 flasks. Cells from multiple flasks were collected by scraping, pooled and centrifuged for 10 min at 190×g. The cells were resuspended in phosphate buffered saline (PBS) containing 10 mM EDTA using a Tenbroeck homogenizer. The suspension was centrifuged at 4° C. at 57,800×g for 15 min, the pellet was resuspended in 5 ml of buffer A (5 mM HEPES buffer, pH 7.4 containing aprotinin (100 KIU/ml)) and then frozen and thawed once. 5 ml of Buffer B (5 mM HEPES Buffer, pH 7.4 containing 10 mM MnCl2 and 0.001% deoxyribonuclease Type 1) was added, the suspension mixed by inversion and then incubated at 37° C. for 30 minutes. The mixture was centrifuged at 57,800×g as described above, the pellet washed twice with buffer A and then resuspended in buffer C (30 mM HEPES buffer, pH 7.4 containing aprotinin (100 KIU/ml) to give a final protein concentration of 2 mg/ml and stored at −70° C. until use.
The membrane suspension was diluted with binding buffer (30 mM HEPES buffer, pH 7.4 containing 150 mM NaCl, 5 mM MgCl2, 0.5% Bacitracin) to a concentration of 8 μg/50 μl. ^25I-endothelin-1 (3,000 cpm, […]) was added to 50 μl of either: (A) endothelin-1 (for non specific binding) to give a final concentration 80 nM); (B) binding buffer (for total binding); or (C) a test compound (final concentration 1 nM to 100 μM). The membrane suspension (50 μl), containing up to 8 μg of membrane protein, was added to each of (A), (B), or (C). Mixtures were shaken, and incubated at 4° C. for 16-18 hours, and then centrifuged at 4° C. for 25 min at 2,500×g. Alternatively, the incubation was conducted at 24° C. When incubated at 24° C., the IC50 concentrations are 2- to 10-fold higher than when the incubation is conducted at 4° C. This, must be kept in mind when comparing IC50 concentrations among compounds provided herein.
The supernatant, containing unbound radioactivity, was decanted and the pellet counted on a Genesys multiwell gamma counter. The degree of inhibition of binding (D) was calculated according to the following equation: [formula]
Each test was generally performed in triplicate.
B. Endothelin Binding Inhibition—Binding Test #2: Inhibition of Binding to ETB Receptors
COS7 cells were transfected with DNA encoding the ETB receptor, The resulting cells, which express the human ETB receptor, were grown to confluence in T-150 flasks. Membrane was prepared as described above. The binding assay was performed as described above using the membrane preparation diluted with binding buffer to a concentration of 1 μg/50 μl.
Briefly, the COS7 cells, described above, that had been transfected with DNA encoding the ETB receptor and express the human ETB receptor on their surfaces were grown to confluence in T-175 flasks. Cells from multiple flasks were collected by scraping, pooled and centrifuged for 10 min at 190×g. The cells were resuspended in phosphate buffered saline (PBS) containing 10 mM EDTA using a Tenbroeck homogenizer. The suspension was centrifuged at 4° C. […]
For “2-[3,4-(methylenedioxy)phenoxy]-6-[(2-carboxyethyl)-4-methoxyphenoxy]benzoic acid [Example 23]”, the “More active among these compounds” value was “More active”. For `COc1ccc(Oc2cccc(Oc3ccc4c(c3)OCO4)c2C(=O)O)cc1` [Example 1, 2-(4-Methoxyphenoxy)-6-[3,4-(methylenedioxy)phenoxy]benzoic acid], the “More active among these compounds” value was “More active”. `Cc1ccc(Oc2cccc(Oc3ccc4c(c3)OCO4)c2C(=O)O)cc1` [Example 2, 2-[3,4-(methylenedioxy)phenoxy]-6-(4-methylphenoxy)benzoic acid] was tested, and the “More active among these compounds” value was “More active”. In the case of `O=C(O)c1c(Oc2ccc3c(c2)OCO3)cccc1Oc1ccc2c(c1)OCO2` [Example 5, 2,6-bis-[3,4-(methylenedioxy)phenoxy]benzoic acid], the “More active among these compounds” value is reported as “More active”. For `Cc1ccc(Oc2cccc(Oc3ccc4c(c3)OCO4)c2C(=O)O)c(Br)c1` [Example 7, 2-(2-Bromo-4-methylphenoxy)-6-[3,4-(methylenedioxy)phenoxy]benzoic acid], the “More active among these compounds” value was “More active”. `Cc1cccc(Oc2cccc(Oc3ccc4c(c3)OCO4)c2C(=O)O)c1` [Example 11, 2-[3,4-(methylenedioxy)phenoxy]-6-(3-methylphenoxy)benzoic acid] was tested, and the “More active among these compounds” value was “More active”. `COc1ccc(Sc2cccc(Oc3ccc4c(c3)OCO4)c2C(=O)O)cc1` [Example 12, 2-(4-methoxythiophenoxy)-6-[3,4-(methylenedioxy)phenoxy]benzoic acid] was tested, and the “More active among these compounds” value was “More active”. For `CCCc1cc2c(cc1Oc1cccc(Oc3ccc4c(c3)OCO4)c1C(=O)O)OCO2` [Example 18, 2-(3,4-methylenedioxy)phenoxy-6-[2-propyl-4,5-(methylenedioxy)phenoxy]benzoic acid], the “More active among these compounds” value was “More active”. In the case of `O=C(O)/C=C/c1cc2c(cc1Oc1cccc(Oc3ccc4c(c3)OCO4)c1C(=O)O)OCO2` [Example 20, 2-(3,4-methylenedioxy)phenoxy-6-[2-carboxy-trans-ethenyl-4,5-(methylenedioxy)phenoxy]benzoic acid], the “More active among these compounds” value is reported as “More active”. `COc1cccc(Oc2cccc(Oc3ccc4c(c3)OCO4)c2C(=O)O)c1` [Example 26, 2-[3,4-(methylenedioxy)phenoxy]-6-(3-methoxyphenoxy)benzoic acid] was tested, and the “More active among these compounds” value was “More active”. “Ethyl 2-[3,4-(methylenedioxy)phenoxy]-6-[2-(carboxyethyl)-4-methoxyphenoxy]benzoate [Example 22]” was tested, and the “More active among these compounds” value was “More active”.
